Source: patent US20130109693A1, “DERIVATIVES OF PYRIDO [3,2-D] PYRIMIDINE, METHODS FOR PREPARATION THEREOF AND THERAPEUTIC USES THEREOF” (UNIVERSITE D'ORLEANS, priority 2010, published 2013)

Experiments:
NCI = test: Cytotoxicity on human cells, NCI (lung); format: cell-based; conditions: exposed 24 h and 48 h, 0.1 to 25 μM
Description: (§1) […] Dosages on Human cells (Huh7, Caco, MDA-MB 231, HCT 116, PC3, NCl, Fibroblast)
(§2) Cytotoxicity: This method is based on an automated imaging analysis. 4.10^3 cells were cultivated on 96-well plates and thus left for 24 hours so that they may bind, be distributed and proliferate.
(§3) These cells were then exposed for 24 h and 48 h to increasing concentrations of the compounds of the invention, from 0.1 to 25 μM in a final volume of 80 μL of culture medium. The cells are then set with a 4% paraformaldehyde solution and the nuclei are colored with Hoechst 3342 and counted according to automated imaging quantification.
(§4) All the cell lines were cultivated in a DMEM or RPMI (Invitrogen) medium. All these media were completed with antibiotics (penicillin-streptomycin)(Lonza) and 10% by volume of foetal calf serum (Invitrogen). The cells were cultivated at 37° C. with 5% of CO2. The treatments with the molecules to be tested were carried out with increasing concentrations. […] The control experiments were also conducted by using suitable dilutions of DMSO (maximum 1% DMSO). Cell viability was determined by measuring the reduction of MTS as described in the article of Ribas J, Boix J. (2004). Cell differentiation caspase inhibition and macromolecular synthesis blockage but not BCL-2 or BCL-XL proteins protect SH-SY5Y cells from apoptosis triggered by two CDK inhibitory drugs. Exp. Cell Res., 295: 9-24.

DYRK1A = DYRK1A (Homo sapiens, UniProt Q13627); test: DYRK1A kinase inhibition (Woodtide substrate, buffer A); format: biochemical; conditions: 15 μM ATP, 30° C., recombinant GST fusion; read-out: IC50 Kinases DYRK1A
Description: (§5) The activities for inhibiting protein kinases of the compounds of the invention are tested according to the following general procedure:
(§6) Buffer A: 10 mM MgCl2, 1 mM EGTA, 1 mM DTT, 25 mM Tris-HCl pH 7.5 and 50 μg heparin/mL.
(§7) The kinase activities are dosed in buffers A or C, at 30° C., at a final concentration of ATP of 15 μM. The values of the blanks were subtracted and the activities are expressed as a % of the maximum activity, i.e. in the absence of inhibitors. The controls were carried out with suitable dilutions of DMSO.

CDK5 = molecular target: T1, CDK5 (Homo sapiens, UniProt Q00535); test: CDK5 kinase inhibition (histone H1, [γ-33P] ATP, buffer C); format: biochemical; conditions: 15 μM ATP, 30° C., recombinant; read-out: IC50 Kinases CDK5
T1 construct: made in house
T1 sequence (Q00535 whole entry): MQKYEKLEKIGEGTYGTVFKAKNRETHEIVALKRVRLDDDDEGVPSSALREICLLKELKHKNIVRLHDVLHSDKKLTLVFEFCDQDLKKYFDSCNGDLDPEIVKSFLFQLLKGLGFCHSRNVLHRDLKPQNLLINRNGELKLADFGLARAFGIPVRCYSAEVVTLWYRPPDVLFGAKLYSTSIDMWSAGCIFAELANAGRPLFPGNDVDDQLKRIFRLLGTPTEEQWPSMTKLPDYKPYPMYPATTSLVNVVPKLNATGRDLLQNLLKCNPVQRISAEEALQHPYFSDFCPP
T1 sequence (Q15078 99-307 partner limits assumed): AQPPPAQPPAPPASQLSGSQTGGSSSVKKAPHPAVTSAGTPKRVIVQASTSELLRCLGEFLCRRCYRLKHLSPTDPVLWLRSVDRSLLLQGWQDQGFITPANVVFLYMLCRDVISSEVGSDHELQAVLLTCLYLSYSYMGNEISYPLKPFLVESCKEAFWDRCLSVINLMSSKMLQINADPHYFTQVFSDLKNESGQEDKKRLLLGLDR
Description: as §5
Buffer C: 60 mM β-glycerophosphate, 15 mM p-nitrophenyl-phosphate, 25 mM Mops (pH 7.2), 5 mM EGTA, 15 mM MgCl2, 1 mM DTT, 1 mM of sodium vanadate
as §7
CDK5 (humane, recombinant) was prepared as described earlier (Leclerc, S.; Garnier, M.; Hoessel, R.; Marko, D.; Bibb, J. A.; Snyder, G. L.; Greengard, P.; Biernat, J.; Mandelkow, E.-M.; Eisenbrand, G.; Meijer, L. Indirubins inhibit glycogen synthase kinase-3β and CDK5/p25, two kinases involved in abnormal tau phosphorylation in Alzheimer's disease—A property common to most CDK inhibitors? J. Biol. Chem. 2001, 276, 251-260; Bach S, Knockaert M, Reinhardt J, Lozach O, Schmitt S, Baratte B et al. (2005). Roscovitine targets, protein kinases and pyridoxal kinase. J. Biol Chem 280: 31208-31219). Its kinase activity was analyzed in the buffer C, with 1 mg of histone H1/mL, in the presence of 15 μM of [γ-^33P] ATP (3,000 Ci/mmol; 10 mCi/mL) in a final volume of 30 μl. After 30 mins of incubation at 30° C., 25 μl of supernatant aliquots were deposited on 2.5×3 cm pieces of phosphocellulose Whatman P81 paper, and after 20 seconds, the filters were washed five times (for at least 5 minutes every time) in a solution of 10 mL phosphoric acid/liter of water. The wet filters were counted in the presence of 1 mL of ACS scintillator fluid (Amersham).

HCT 116 = test: Cytotoxicity on human cells, HCT 116 (colon); format: cell-based; conditions: exposed 24 h and 48 h, 0.1 to 25 μM
Description: as §1, §2, §3, §4

PC3 = test: Cytotoxicity on human cells, PC3 (prostate); format: cell-based; conditions: PC-3, human cells, exposed 24 h and 48 h, 0.1 to 25 μM
Description: as §1, §2, §3, §4

Caco = test: Cytotoxicity on human cells, Caco (colon); format: cell-based; conditions: exposed 24 h and 48 h, 0.1 to 25 μM
Description: as §1, §2, §3, §4

MDA-MB 231 = test: Cytotoxicity on human cells, MDA-MB 231 (breast); format: cell-based; conditions: MDA-MB-231, human cells, exposed 24 h and 48 h, 0.1 to 25 μM
Description: as §1, §2, §3, §4

GSK-3αβ = GSK-3αβ kinase inhibition (GS-1 substrate, buffer A); format: biochemical; conditions: 15 μM ATP, 30° C., native, pig brain; read-out: IC50 Kinases GSK3
Description: as §5, §6, §7
GSK-3αβ (from pig brain, native) was assayed by using a specific substrate of GSK-3 (GS-1: […]pEDEEE)(Sp represents a phosphorylated serine) (Primot, A., Baratte, B., Gompel, M., Borgne, A., Liabeuf, S., Romette, J. L., Costantini, F. and Meijer, L., 2000. Purification of GSK-3 by affinity chromatography on immobilized axin. Protein Expr. & Purif. 20 (3), 394-404). GS-1 was synthesized by Millegen (Labège, France). Its kinase activity was analyzed in the buffer A, with 1 mg of histone H1/mL, in the presence of 15 μM of [γ-^33P] ATP (3,000 Ci/mmol; 10 mCi/mL) in a final volume of 30 μl. After 30 mins of incubation at 30° C., 25 μl of supernatant aliquots were deposited on 2.5×3 cm pieces of phosphocellulose Whatman P81papier, and after 20 seconds, the filters were washed five times (for at least 5 minutes every time) in a solution of 10 mL of phosphoric acid/liter of water. The wet filters were counted in the presence of 1 mL of ACS scintillator fluid (Amersham).

fibroblast = test: Cytotoxicity on human cells, fibroblast; format: cell-based; conditions: exposed 24 h and 48 h, 0.1 to 25 μM
Description: as §1, §2, §3, §4

Huh7 = test: Cytotoxicity on human cells, Huh7 (liver); format: cell-based; conditions: Huh-7, human cells, exposed 24 h and 48 h, 0.1 to 25 μM
Description: as §1, §2, §3, §4

| Compound | melting point [°C] | IC50 (NCI) [µM] | IC50 (DYRK1A) [µM] | IC50 (CDK5) [µM] | IC50 (HCT 116) [µM] | IC50 (PC3) [µM] | IC50 (Caco) [µM] | IC50 (MDA-MB 231) [µM] | IC50 (GSK-3αβ) [µM] | IC50 (fibroblast) [µM] | IC50 (Huh7) [µM] |
| --- | --- | --- | --- | --- | --- | --- | --- | --- | --- | --- | --- |
| Oc1ccc(-c2ncc3ncc(Nc4nc5ccccc5s4)cc3n2)cc1 [Compound 47, 2-(4-Hydroxyphenyl)-7-(2-benzothiazolamino)-pyrido[3,2-d]pyrimidine] | > 268 | > 25 | > 10 | 5.3 | > 25 | > 25 | > 25 | > 25 | > 10 | > 25 | > 25 |
| Oc1ccc(-c2ncc3ncc(Nc4ccon4)cc3n2)cc1 [Compound 48, 2-(4-Hydroxyphenyl)-7-(3-isoxazolamino)-pyrido[3,2-d]pyrimidine] | > 268 | 3 | 2 | 2.1 | 9 | 20 | 20 | 12 | > 10 | 15 | 25 |
| Cc1csc(Nc2cnc3cnc(-c4ccc(O)cc4)nc3c2)n1 [Compound 50, 2-(4-Hydroxyphenyl)-7-(2-(4-methyl)thiazolamino)-pyrido[3,2-d]pyrimidine] | > 268 | 25 | > 10 | > 10 | > 25 | > 25 | > 25 | 25 | > 10 | > 25 | 10 |
| COc1ccc(Nc2cnc3cnc(-c4ccc(O)cc4)nc3c2)cc1 [Compound 51, 2-(4-Hydroxyphenyl)-7-(4-methoxyphenylamino)-pyrido[3,2-d]pyrimidine] | 134 to 136 | 10 | > 10 | 1.8 | 15 | 2 | 12 | 15 | 7.3 | 10 | 15 |
| Oc1ccc(-c2ncc3ncc(Nc4ncccn4)cc3n2)cc1 [Compound 52, 2-(4-Hydroxyphenyl)-7-(2-pyrimidinylamino)-pyrido[3,2-d]pyrimidine] | > 268 | 1.5 | > 10 | 7.6 | 2 | 1.5 | 5 | 2.5 | > 10 | 2 | 25 |
| Cc1ncccc1Nc1cnc2cnc(-c3ccc(O)cc3)nc2c1 [Compound 53, 2-(4-Hydroxyphenyl)-7-(3-(2-methyl)-pyridinylamino)-pyrido[3,2-d]pyrimidine] | 186 to 188 | 15 | > 10 | > 10 | > 25 | 6 | 15 | 9 | > 10 | 10 | 12 |
| N#Cc1ccc(Nc2cnc3cnc(-c4ccc(O)cc4)nc3c2)nc1 [Compound 54, 2-(4-Hydroxyphenyl)-7-(2-(5-cyano)pyridinylamino)-pyrido[3,2-d]pyrimidine] | > 268 | 20 | > 10 | 4 | > 25 | > 25 | > 25 | 12 | 5.5 | > 25 | > 25 |
| Oc1ccc(Nc2ncc3ncc(Cl)cc3n2)cc1 [Compound 59, 7-Chloro-2-(4-hydroxyphenylamino)-pyrido[3,2-d]pyrimidine] | 232 to 234 | 10 | > 10 | 1.1 | 2 | 12 | > 25 | 6 | > 10 | 5 | 12 |
| Oc1ccc(Nc2ncc3ncc(-c4ccccc4O)cc3n2)cc1 [Compound 60, 2-(4-Hydroxyphenylamino)-7-(2-hydroxyphenyl)-pyrido[3,2-d]pyrimidine] | 262 to 264 | 5 | > 10 | 3.7 | 8 | 20 | 4 | 10 | > 10 | 5 | 6 |
